Here are results for 40 molecules from US11279681B2, “3-alkyl bicyclic [4,5,0] hydroxamic acids as HDAC inhibitors” (Valo Health, Inc., priority 2015, dated 2022).

The target in this assay is T1, HDAC6 (Homo sapiens, UniProt Q9UBN7).
T1 sequence (Q9UBN7 1-1215): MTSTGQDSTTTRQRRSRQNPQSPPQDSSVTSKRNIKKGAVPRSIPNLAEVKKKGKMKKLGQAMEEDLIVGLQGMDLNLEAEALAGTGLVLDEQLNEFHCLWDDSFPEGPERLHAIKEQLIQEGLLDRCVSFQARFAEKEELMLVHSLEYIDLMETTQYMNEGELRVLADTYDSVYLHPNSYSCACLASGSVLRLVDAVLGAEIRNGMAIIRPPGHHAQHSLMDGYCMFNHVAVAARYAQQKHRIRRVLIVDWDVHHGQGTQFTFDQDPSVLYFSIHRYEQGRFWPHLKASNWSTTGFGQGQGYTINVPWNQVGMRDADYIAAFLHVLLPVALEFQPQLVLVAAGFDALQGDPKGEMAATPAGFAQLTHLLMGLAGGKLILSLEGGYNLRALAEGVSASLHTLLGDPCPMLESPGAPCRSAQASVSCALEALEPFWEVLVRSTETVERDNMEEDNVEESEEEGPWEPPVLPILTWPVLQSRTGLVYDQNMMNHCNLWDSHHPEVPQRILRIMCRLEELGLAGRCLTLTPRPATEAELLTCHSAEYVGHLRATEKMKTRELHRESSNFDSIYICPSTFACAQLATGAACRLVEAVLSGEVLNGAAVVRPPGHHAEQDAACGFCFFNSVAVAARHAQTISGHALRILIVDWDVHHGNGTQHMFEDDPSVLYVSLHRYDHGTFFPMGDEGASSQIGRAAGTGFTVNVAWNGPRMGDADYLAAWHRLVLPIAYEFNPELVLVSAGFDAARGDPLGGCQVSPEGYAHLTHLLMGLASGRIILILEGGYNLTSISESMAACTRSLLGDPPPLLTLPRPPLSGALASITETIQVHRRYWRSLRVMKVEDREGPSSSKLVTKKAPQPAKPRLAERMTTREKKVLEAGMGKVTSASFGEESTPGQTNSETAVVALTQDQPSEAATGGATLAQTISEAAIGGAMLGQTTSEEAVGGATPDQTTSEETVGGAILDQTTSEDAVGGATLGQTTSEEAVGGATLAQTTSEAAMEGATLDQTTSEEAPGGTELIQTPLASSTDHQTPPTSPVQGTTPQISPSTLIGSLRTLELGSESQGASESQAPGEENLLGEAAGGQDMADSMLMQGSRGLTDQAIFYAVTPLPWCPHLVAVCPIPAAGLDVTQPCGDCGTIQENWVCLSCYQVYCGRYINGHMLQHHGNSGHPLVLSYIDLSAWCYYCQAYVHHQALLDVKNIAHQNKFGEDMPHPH
Nature of the assay: In vitro histone deacetylase assay: enzymatic HDAC6 electrophoretic mobility shift assay. The conditions noted are these: full length human recombinant HDAC6, 1 nM enzyme, 2 μM peptide substrate RHKK(Ac)-NH2, 25° C.; read-out: Inhibitory Concentration (IC50) Values for Representative Compounds against HDAC6, Activity Range. Type of assay: biochemical. As for the experimental part: The enzymatic HDAC6 assay was performed using electrophoretic mobility shift assay. […] The enzymatic reactions were assembled in 384 well plates in a total volume of 25 μL in a reaction buffer composing: 100 mM HEPES, pH7.5, 25 mM KCl, 0.1% bovine serum albumin, 0.01% Triton X-100, 1% DMSO (from compounds) 2 μM of the fluorescently labeled peptide substrate and enzyme. The enzyme was added at a final concentration of 1 nM. The peptide substrate RHKK(Ac)-NH2 was used. The compounds were tested at 12 concentrations spaced by 3× dilution intervals. Negative control samples (0%-inhibition in the absence of inhibitor) and positive control samples (100%-inhibition) were assembled in replicates of four in each assay plate. The reactions were incubated at 25° C. and quenched by the addition of 45 μL of termination buffer (100 mM HEPES, pH 7.5, 0.01% Triton X-100, 0.05% SDS).
The terminated assay plates were analyzed on LabChip® 3000 microfluidic electrophoresis instrument (Perkin Elmer/Caliper Life Sciences). The fluorescence intensity of the electrophoretically separated de-acetylated product and substrate peptide was measured. Activity in each sample was determined as the product to sum ratio (PSR): P/(S+P), where P is the peak height of the product peptide and S is the peak height of the substrate peptide. Percent inhibition (Pinh) is determined using the following equation:
Pinh=(PSR0%−PSRinh)/(PSR0%−PSR100%)*100, where PSRinh is the product sum ratio in the presence of inhibitor, PSR0% is the average product sum ration in the absence of inhibitor and PSR100% is the average product sum ratio in 100%-inhibition control samples. The IC50 values of inhibitors were determined by fitting the %-inhibition curves with 4 parameter dose-response model using XLfit 4 software.
With `O=C1CN(c2ccccc2)Cc2cc(C(=O)NO)ccc2N1` [N-hydroxy-2-oxo-4-phenyl-2,3,4,5-tetrahydro-1H-benzo[e][1,4]diazepine-7-carboxamide], the IC50 was greater than 0.5 µM.
Next, `C[C@H]1COc2cc(C(=O)NO)ccc2CN1C1CCCC1` [(S)-4-cyclopentyl-N-hydroxy-3-methyl-2,3,4,5-tetrahydrobenzo[f][1,4]oxazepine-8-carboxamide]: 0.1 to 0.5 µM; `C[C@H]1COc2cc(C(=O)NO)ccc2CN1C(=O)N1CCOCC1` [(S)-N-hydroxy-3-methyl-4-(morpholine-4-carbonyl)-2,3,4,5-tetrahydrobenzo[f][1,4]oxazepine-8-carboxamide]: no more than 0.1 µM.
Next, `COc1ccc(CN2CCOc3cc(C(=O)NO)ccc3[C@@H]2C)cc1` [(S)-N-hydroxy-4-(4-methoxybenzyl)-5-methyl-2,3,4,5-tetrahydrobenzo[f][1,4]oxazepine-8-carboxamide]: 0.1 to 0.5 µM.
With `COc1ccc(NC(=O)N2Cc3ccc(C(=O)NO)cc3O[C@H](c3ccccc3)C2)cc1` [(R)-N8-hydroxy-N4-(4-methoxyphenyl)-2-phenyl-2,3-dihydrobenzo[f][1,4]oxazepine-4,8(5H)-dicarboxamide], the IC50 lay in the range of 0.1 to 0.5 µM.
The value for `O=C(NO)c1ccc2c(c1)OCCN(CC1CCCCC1)C2` was 0.1 to 0.5 µM.
Next, `C[C@H]1COc2cc(C(=O)NO)ccc2CN1c1ccccc1`: no more than 0.1 µM.
Regarding `O=C(NO)c1ccc2c(c1)OCCN(C(=O)OC1CCCCC1)C2`, the IC50 is no more than 0.1 µM.
With `O=C1CN(Cc2ccn3ccnc3c2)Cc2cc(C(=O)NO)ccc2N1`, the IC50 lay in the range of 0.1 to 0.5 µM.
`CC(C)N1Cc2ccc(C(=O)NO)cc2OC[C@@H]1C` [(S)-N-hydroxy-4-isopropyl-3-methyl-2,3,4,5-tetrahydrobenzo[f][1,4]oxazepine-8-carboxamide]: the IC50 was greater than 0.5 µM.
Next, `O=C(NO)c1ccc2c(c1)OCCN(Cc1ccccc1)S2(=O)=O`: greater than 0.5 µM; `O=C(NO)c1ccc2c(c1)CN(Cc1nc3ccccc3[nH]1)CCO2`: greater than 0.5 µM; `C[C@H]1COc2cc(C(=O)NO)ccc2CN1c1cccc(F)c1` [(S)-4-(3-fluorophenyl)-N-hydroxy-3-methyl-2,3,4,5-tetrahydrobenzo[f][1,4]oxazepine-8-carboxamide]: no more than 0.1 µM.
As to `O=C1CN(Cc2ccc(Oc3ccccc3)cc2)Cc2cc(C(=O)NO)ccc2N1`, the IC50 is no more than 0.1 µM.
Next, `COc1ccc(CCN2CCOc3ccc(C(=O)NO)cc3C2)cc1`: greater than 0.5 µM.
Next, `COc1ccc(CN2CCOc3cc(C(=O)NO)ccc3C2=O)cc1`: 0.1 to 0.5 µM; `CC1(C)COc2cc(C(=O)NO)ccc2CN1` [N-hydroxy-3,3-dimethyl-2,3,4,5-tetrahydrobenzo[f][1,4]oxazepine-8-carboxamide]: no more than 0.1 µM.
Next, `CC[C@H]1COc2cc(C(=O)NO)ccc2CN1Cc1ccc(OC)cc1` [(S)-3-ethyl-N-hydroxy-4-(4-methoxybenzyl)-2,3,4,5-tetrahydrobenzo[f][1,4]oxazepine-8-carboxamide]: no more than 0.1 µM; `C[C@H]1COc2cc(C(=O)NO)ccc2CN1CC1CCCC1` [(S)-4-(cyclopentylmethyl)-N-hydroxy-3-methyl-2,3,4,5-tetrahydrobenzo[f][1,4]oxazepine-8-carboxamide]: no more than 0.1 µM.
Take `COc1ccc(CN2CCOc3cc(C(=O)NO)cnc3C2)cc1`: the IC50 lay in the range of 0.1 to 0.5 µM.
Regarding `C[C@H]1COc2cc(C(=O)NO)ccc2CN1C(=O)NC1CCCCC1` [(S)-N4-cyclohexyl-N8-hydroxy-3-methyl-2,3-dihydrobenzo[f][1,4]oxazepine-4,8(5H)-dicarboxamide], the IC50 was no more than 0.1 µM.
In the case of `COc1ccc(NC(=O)N2Cc3ccc(C(=O)NO)cc3OC[C@H]2C)cc1`, the IC50 fell in the range of 0.1 to 0.5 µM.
As to `C[C@H]1COc2cc(C(=O)NO)ccc2CN1C(=O)OC1CCOCC1` [tetrahydro-2H-pyran-4-yl(S)-8-(hydroxycarbamoyl)-3-methyl-2,3-dihydrobenzo[f][1,4]oxazepine-4(5H)-carboxylate], the IC50 was no more than 0.1 µM.
As to `O=C(NO)c1ccc2c(c1)OCCN(C(=O)N1CCCC1)C2` [N-hydroxy-4-(pyrrolidine-1-carbonyl)-2,3,4,5-tetrahydrobenzo[f][1,4]oxazepine-8-carboxamide], the IC50 is no more than 0.1 µM.
The value for `C[C@H]1CN(C)Cc2ccc(C(=O)NO)cc2O1` [(S)—N-hydroxy-2,4-dimethyl-2,3,4,5-tetrahydrobenzo[f][1,4]oxazepine-8-carboxamide] was greater than 0.5 µM; that for `O=C1CN(Cc2ccc(-c3ccccn3)cc2)Cc2cc(C(=O)NO)ccc2N1` was no more than 0.1 µM; that for `O=C1CN(Cc2ccnc(N3CCOCC3)c2)Cc2cc(C(=O)NO)ccc2N1` was 0.1 to 0.5 µM.
The value for `CN1CCOc2cc(C(=O)NO)ccc2C1` [N-hydroxy-4-methyl-2,3,4,5-tetrahydrobenzo[f][1,4]oxazepine-8-carboxamide] was 0.1 to 0.5 µM.
The value for `C[C@H]1COc2cc(C(=O)NO)ccc2CN1C(=O)N1CCC1` [(S)-4-(azetidine-1-carbonyl)-N-hydroxy-3-methyl-2,3,4,5-tetrahydrobenzo[f][1,4]oxazepine-8-carboxamide] was no more than 0.1 µM; that for `C[C@H]1COc2cc(C(=O)NO)ccc2CN1c1ccc(C(F)(F)F)cc1` [(S)-N-hydroxy-3-methyl-4-(4-(trifluoromethyl)phenyl)-2,3,4,5-tetrahydrobenzo[f][1,4]oxazepine-8-carboxamide] was 0.1 to 0.5 µM.
In the case of `CC1COCCN1C(=O)N1CCOc2cc(C(=O)NO)ccc2C1` (stereo not shown) [N-hydroxy-4-(3-methylmorpholine-4-carbonyl)-2,3,4,5-tetrahydrobenzo[f][1,4]oxazepine-8-carboxamide], the IC50 is 0.1 to 0.5 µM.
In the case of `COCCn1c(CN2CCOc3ccc(C(=O)NO)cc3C2)nc2ccccc21`, the IC50 was greater than 0.5 µM.
Turning to `COC[C@H]1CN(C(=O)Nc2ccc(OC)cc2)Cc2ccc(C(=O)NO)cc2O1` [(R)-N8-hydroxy-2-(methoxymethyl)-N4-(4-methoxyphenyl)-2,3-dihydrobenzo[f][1,4]oxazepine-4,8(5H)-dicarboxamide], the IC50 is 0.1 to 0.5 µM.
The value for `COc1ccc(S(=O)(=O)N2CCOc3cc(C(=O)NO)cnc3C2)cc1` was 0.1 to 0.5 µM; that for `C[C@H]1COc2cc(C(=O)NO)ccc2CN1c1ccc(Cl)cc1` [(S)-4-(4-chlorophenyl)-N-hydroxy-3-methyl-2,3,4,5-tetrahydrobenzo[f][1,4]oxazepine-8-carboxamide] was no more than 0.1 µM; that for `O=C1CN(Cc2cccc(Oc3ccccc3)c2)Cc2cc(C(=O)NO)ccc2N1` was 0.1 to 0.5 µM.
In the case of `COc1ccc(CN2CC(=O)N(C)c3ccc(C(=O)NO)cc3C2)cc1`, the IC50 is greater than 0.5 µM.
Next, `COc1ccc(CN2Cc3ccc(C(=O)NO)cc3O[C@@H](C)C2)cc1`: 0.1 to 0.5 µM; `COCCn1c(CN2CCOc3cc(C(=O)NO)ccc3C2)nc2ccccc21`: 0.1 to 0.5 µM; `COC[C@@H]1COc2cc(C(=O)NO)ccc2CN1c1ccccc1C` [(R)-N-hydroxy-3-(methoxymethyl)-4-(o-tolyl)-2,3,4,5-tetrahydrobenzo[f][1,4]oxazepine-8-carboxamide]: no more than 0.1 µM.
